According to US7138361B2, “Herbicidal heterocycles” (E. I. du Pont de Nemours and Company, priority 2000, dated 2006):

How the values were obtained:
Experiment in all cases: Test C preemergence
Format in all cases: in vivo
[1] = tested on: Nightshade
[2] = tested on: Sunflower
[3] = tested on: Surinam grass (Brachiaria decumbens)
Method in brief: (§1)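 Formulation: non-phytotoxic solvent mix incl. surfactant. Pre: applied right after planting. Post: 1–4-leaf seedlings. Read: visual 0–100, day 12–14, greenhouse.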

[4] = tested on: bermudagrass (Cynodon dactylon)
Method in brief: as §1

[5] = tested on: cocklebur (Xanthium strumarium)
Method in brief: as §1

[6] = tested on: common ragweed (Ambrosia elatior)
Method in brief: as §1

[7] = tested on: corn (Zea mays)
Method in brief: as §1

[8] = tested on: crabgrass (Digitaria sanguinalis)
Method in brief: as §1

[9] = tested on: giant foxtail (Setaria faberii)
Method in brief: as §1

[10] = tested on: goosegrass (Eleusine indica)
Method in brief: as §1

[11] = tested on: johnsongrass (Sorghum halepense)
Method in brief: as §1

[12] = tested on: kochia (Kochia scoparia)
Method in brief: as §1

[13] = tested on: lambsquarters (Chenopodium album)
Method in brief: as §1

[14] = tested on: morningglory (Ipomoea hederacea)
Method in brief: as §1

[15] = tested on: pigweed (Amaranthus retroflexus)
Method in brief: as §1

[16] = tested on: soybean (Glycine max)
Method in brief: as §1

[17] = tested on: velvetleaf (Abutilon theophrasti)
Method in brief: as §1

[18] = tested on: woolly cupgrass (Eriochloa villosa)
Method in brief: as §1

[19] = tested on: yellow nutsedge (Cyperus esculentus)
Method in brief: as §1

[20] = tested on: Sunflower; conditions: Rate 125 g/ha, scale 0 to 100, 0 no effect, 100 complete control
[21] = Rate 62 g/ha, scale 0 to 100, 0 no effect, 100 complete control
[22] = Preemergence, Rate 500 g/ha, scale 0 to 100
[23] = preemergence, Rate 250 g/ha, visual evaluation after 12 to 14 days
[24] = preemergence, Rate 125 g/ha, scale 0 to 100, 0 no effect, 100 complete control

O=C1C(n2ccc(C3CCC3)n2)SCN1c1cccc(OC(F)F)c1 (stereo not drawn) [Compound 45]
Plant response rating, Nightshade [1, 21]: 0
Plant response rating, Nightshade ([1]; Rate 125 g/ha, scale 0 to 100, 0 no effect, 100 complete control): 0
Plant response rating, Nightshade ([1]; Rate 500 g/ha, scale 0 to 100): 40
Plant response rating, Sunflower [2, 21]: 20
Plant response rating, Sunflower ([2]; Rate 500 g/ha, scale 0 to 100): 70
Plant response rating, Surinam grass [3, 22]: 70
Plant response rating, Surinam grass [3, 21]: 0
Plant response rating (0 to 100), Surinam grass [3, 23]: 40
Plant response rating, Surinam grass [3, 24]: 0
Plant response rating, Bermudagrass [4, 22]: 100
Plant response rating, Bermudagrass [4, 21]: 50
Plant response rating (0 to 100 where 0 is no effect and 100 is complete control), Bermudagrass [4, 23]: 100
Plant response rating, Bermudagrass [4, 24]: 90
Plant response rating, Cocklebur [5, 22]: 90
Plant response rating (0 to 100), Cocklebur [5, 23]: 20
Plant response rating, Cocklebur [5, 24]: 0
Plant response rating, Ragweed, Common [6, 22]: 60
Plant response rating, Ragweed, Common [6, 21]: 0
Plant response rating (0 to 100), Ragweed, Common [6, 23]: 30
Plant response rating, Ragweed, Common [6, 24]: 0
Plant response rating, Corn [7, 22]: 0
Plant response rating, Corn [7, 21]: 0
Plant response rating (0 to 100), Corn [7, 23]: 0
Plant response rating, Corn [7, 24]: 0
Plant response rating, Crabgrass [8, 22]: 100
Plant response rating, Crabgrass [8, 21]: 90
Plant response rating (0 to 100), Crabgrass [8, 23]: 100
Plant response rating, Crabgrass [8, 24]: 100
Plant response rating, Foxtail, Giant [9, 22]: 90
Plant response rating, Foxtail, Giant [9, 21]: 30
Plant response rating (0 to 100), Foxtail, Giant [9, 23]: 40
Plant response rating, Foxtail, Giant [9, 24]: 40
Plant response rating, Goosegrass [10, 22]: 100
Plant response rating, Goosegrass [10, 21]: 90
Plant response rating (0 to 100), Goosegrass [10, 23]: 100
Plant response rating, Goosegrass [10, 24]: 100
Plant response rating, Johnsongrass [11, 22]: 100
Plant response rating, Johnsongrass [11, 21]: 0
Plant response rating (0 to 100), Johnsongrass [11, 23]: 50
Plant response rating, Johnsongrass [11, 24]: 0
Plant response rating, Kochia [12, 22]: 100
Plant response rating, Kochia [12, 21]: 20
Plant response rating (0 to 100), Kochia [12, 23]: 90
Plant response rating, Kochia [12, 24]: 60
Plant response rating, Lambsquarters [13, 22]: 100
Plant response rating, Lambsquarters [13, 21]: 60
Plant response rating (0 to 100), Lambsquarters [13, 23]: 100
Plant response rating, Lambsquarters [13, 24]: 100
Plant response rating, Morningglory [14, 22]: 0
Plant response rating, Morningglory [14, 21]: 0
Plant response rating (0 to 100), Morningglory [14, 23]: 0
Plant response rating, Morningglory [14, 24]: 0
Plant response rating, Pigweed [15, 22]: 30
Plant response rating, Pigweed [15, 21]: 0
Plant response rating (0 to 100), Pigweed [15, 23]: 0
Plant response rating, Pigweed [15, 24]: 0
Plant response rating, Soybean [16, 22]: 0
Plant response rating, Soybean [16, 21]: 0
Plant response rating (0 to 100), Soybean [16, 23]: 0
Plant response rating, Soybean [16, 24]: 0
Plant response rating, Velvetleaf [17, 22]: 30
Plant response rating, Velvetleaf [17, 21]: 0
Plant response rating (0 to 100), Velvetleaf [17, 23]: 20
Plant response rating, Velvetleaf [17, 24]: 0
Plant response rating, Cupgrass, Woolly [18, 22]: 100
Plant response rating, Cupgrass, Woolly [18, 21]: 0
Plant response rating (0 to 100), Cupgrass, Woolly [18, 23]: 70
Plant response rating, Cupgrass, Woolly [18, 24]: 30
Plant response rating, Nutsedge [19, 22]: 100
Plant response rating (0 to 100), Nutsedge [19, 23]: 60
Plant response rating, Nutsedge [19, 24]: 0
Plant response rating, Sunflower [20]: 20
